The values below come from PubChem BioAssay AID256 (DTP/NCI, 2004).

Each structure is given as a SMILES string. Values joined by “and” are separate entries in the source; they are usually repeats but may differ in a detail not shown here. Identical values can stand only once. Toxic doses and inconclusive results are not listed.

In the assay the test system is CD2F1 mice, L1210 leukemia ip, survival T/C. Description: NCI In Vivo Anticancer Drug Screen. Data for tumor model L1210 Leukemia (intraperitoneal) in CD2F1 (CDF1) mice. To be noted: higher = longer survival. A digest of the protocol:
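Each value reflects a quotient of treated over vehicle control outcomes in mice with a transplanted tumor.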

Setting [1] is: endpoint: mean survival time, dose: 100.0 mg/kg/injection, schedule: Q01DX001 (ip), vehicle: saline with Tween-80.
The mark [2] stands for this setting: endpoint: mean survival time, dose: 200.0 mg/kg/injection, schedule: Q01DX001 (ip), vehicle: saline with Tween-80.

In the case of `C1CN1c1nc(N2CC2)nc(N2CC2)n1`, the T/C is 100 % of control (endpoint: mean survival time, dose: 0.05 mg/kg/injection, schedule: Q01DX009 (ip), vehicle: saline); 150 % of control (endpoint: mean survival time, dose: 0.06 mg/kg/injection, schedule: Q01DX009 (ip), vehicle: saline); 100 % of control (endpoint: mean survival time, dose: 0.06 mg/kg/injection, schedule: Q03HX008 (ip), vehicle: saline); 95 % of control and 97 % of control (endpoint: mean survival time, dose: 0.06 mg/kg/injection, schedule: Q03HX016 (ip), vehicle: saline); 113 % of control (endpoint: mean survival time, dose: 0.06 mg/kg/injection, schedule: Q03HX024 (ip), vehicle: saline); 107 % of control (endpoint: mean survival time, dose: 0.1 mg/kg/injection, schedule: Q01DX009 (ip), vehicle: saline). In addition, the T/C was 215 % of control and 100 % of control (endpoint: mean survival time, dose: 0.12 mg/kg/injection, schedule: Q01DX009 (ip), vehicle: saline); 110 % of control (endpoint: mean survival time, dose: 0.13 mg/kg/injection, schedule: Q03HX008 (ip), vehicle: saline); 104 % of control and 110 % of control (endpoint: mean survival time, dose: 0.13 mg/kg/injection, schedule: Q03HX016 (ip), vehicle: saline); 124 % of control (endpoint: mean survival time, dose: 0.13 mg/kg/injection, schedule: Q03HX024 (ip), vehicle: saline); 117 % of control (endpoint: mean survival time, dose: 0.2 mg/kg/injection, schedule: Q01DX009 (ip), vehicle: saline); 117 % of control (endpoint: mean survival time, dose: 0.25 mg/kg/injection, schedule: Q01DX005 (ip), vehicle: saline). Also, the T/C is 109 % of control (endpoint: mean survival time, dose: 0.25 mg/kg/injection, schedule: Q01DX009 (ip), vehicle: saline); 174 % of control (endpoint: mean survival time, dose: 0.25 mg/kg/injection, schedule: Q03HX024 (ip), vehicle: saline); 155 % of control (endpoint: mean survival time, dose: 0.4 mg/kg/injection, schedule: Q01DX009 (ip), vehicle: saline); 114 % of control (endpoint: mean survival time, dose: 0.5 mg/kg/injection, schedule: Q01DX001 (ip), vehicle: saline); 150 % of control (endpoint: mean survival time, dose: 0.5 mg/kg/injection, schedule: Q01DX005 (ip), vehicle: saline); 183 % of control (endpoint: mean survival time, dose: 0.5 mg/kg/injection, schedule: Q01DX007 (ip), vehicle: saline). In addition, the T/C (endpoint: mean survival time, dose: 0.5 mg/kg/injection, schedule: Q03HX008 (ip), vehicle: saline) was 185 % of control; the T/C (endpoint: mean survival time, dose: 0.5 mg/kg/injection, schedule: Q03HX016 (ip), vehicle: saline) was 183 % of control; the T/C (endpoint: mean survival time, dose: 0.5 mg/kg/injection, schedule: Q03HX024 (ip), vehicle: saline) was 101 % of control; the T/C (endpoint: mean survival time, dose: 0.5 mg/kg/injection, schedule: Q08DX002 (ip), vehicle: saline) was 107 % of control; the T/C (endpoint: mean survival time, dose: 0.5 mg/kg/injection, schedule: Q11DX002 (ip), vehicle: saline) was 100 % of control; the T/C (endpoint: mean survival time, dose: 1.0 mg/kg/injection, schedule: Q01DX001 (ip), vehicle: saline) was 190 % of control. Also, the T/C runs as follows: (endpoint: mean survival time, dose: 1.0 mg/kg/injection, schedule: Q01DX005 (ip), vehicle: saline) 86 % of control; (endpoint: mean survival time, dose: 1.0 mg/kg/injection, schedule: Q01DX007 (ip), vehicle: saline) 92 % of control; (endpoint: mean survival time, dose: 1.0 mg/kg/injection, schedule: Q03DX003 (ip), vehicle: saline) 183 % of control; (endpoint: mean survival time, dose: 1.0 mg/kg/injection, schedule: Q08DX002 (ip), vehicle: saline) 204 % of control; (endpoint: mean survival time, dose: 1.0 mg/kg/injection, schedule: Q11DX002 (ip), vehicle: saline) 97 % of control; (endpoint: mean survival time, dose: 2.0 mg/kg/injection, schedule: Q01DX001 (ip), vehicle: saline) 154 % of control and 157 % of control. Besides, the T/C (endpoint: mean survival time, dose: 2.0 mg/kg/injection, schedule: Q03DX003 (ip), vehicle: saline) was 211 % of control; the T/C (endpoint: mean survival time, dose: 2.0 mg/kg/injection, schedule: Q08DX002 (ip), vehicle: saline) was 184 % of control; the T/C (endpoint: mean survival time, dose: 2.0 mg/kg/injection, schedule: Q11DX002 (ip), vehicle: saline) is 100 % of control; the T/C (endpoint: mean survival time, dose: 3.0 mg/kg/injection, schedule: Q01DX001 (ip), vehicle: saline) is 169 % of control and 338 % of control; the T/C (endpoint: mean survival time, dose: 4.0 mg/kg/injection, schedule: Q01DX001 (ip), vehicle: saline) was 120 % of control; the T/C (endpoint: mean survival time, dose: 4.0 mg/kg/injection, schedule: Q08DX002 (ip), vehicle: saline) is 102 % of control. Besides, the T/C (endpoint: mean survival time, dose: 4.0 mg/kg/injection, schedule: Q11DX002 (ip), vehicle: saline) was 153 % of control; the T/C (endpoint: mean survival time, dose: 62.0 micrograms/kg/injection, schedule: Q01DX009 (ip), vehicle: saline) is 123 % of control; the T/C (endpoint: mean survival time, dose: 125.0 micrograms/kg/injection, schedule: Q01DX009 (ip), vehicle: saline) was 173 % of control; the T/C (endpoint: median survival time, dose: 0.25 mg/kg/injection, schedule: Q01DX009 (ip), vehicle: saline) is 100 % of control; the T/C (endpoint: median survival time, dose: 0.5 mg/kg/injection, schedule: Q01DX009 (ip), vehicle: saline) was 150 % of control and 185 % of control; the T/C (endpoint: median survival time, dose: 1.0 mg/kg/injection, schedule: Q01DX009 (ip), vehicle: saline) was 121 % of control and 100 % of control.

With `CC(C)(C)N=C=N[N+](C)(C)Cc1ccccc1`, the T/C runs as follows: (endpoint: mean survival time, dose: 6.25 mg/kg/injection, schedule: Q01DX009 (ip), vehicle: saline) 95 % of control; (endpoint: mean survival time, dose: 12.5 mg/kg/injection, schedule: Q01DX009 (ip), vehicle: saline) 98 % of control; (endpoint: mean survival time, dose: 25.0 mg/kg/injection, schedule: Q01DX009 (ip), vehicle: saline) 111 % of control.

As to `CC(C)C1=CC23CCC4C(C)(C(=O)O)CCCC4(C)C2CC13` (stereo unspecified), the T/C is, setting by setting: (endpoint: mean survival time, dose: 100.0 mg/kg/injection, schedule: Q04DX003 (ip), vehicle: saline with Tween-80) 103 % of control; (endpoint: mean survival time, dose: 200.0 mg/kg/injection, schedule: Q04DX003 (ip), vehicle: saline with Tween-80) 97 % of control; (endpoint: mean survival time, dose: 400.0 mg/kg/injection, schedule: Q04DX003 (ip), vehicle: saline with Tween-80) 97 % of control.

Turning to `O=C(CCC(O)c1ccccc1)c1ccccc1` (stereo unspecified), the T/C is, setting by setting: (endpoint: mean survival time, dose: 50.0 mg/kg/injection, schedule: Q04DX002 (ip), vehicle: saline with Tween-80) 97 % of control; (endpoint: mean survival time, dose: 100.0 mg/kg/injection, schedule: Q04DX002 (ip), vehicle: saline with Tween-80) 91 % of control; (endpoint: mean survival time, dose: 200.0 mg/kg/injection, schedule: Q04DX002 (ip), vehicle: saline with Tween-80) 91 % of control.

Consider `CCOC(=O)C(CCC(C)C)C(C)=O` (stereo unspecified), for which the T/C was 93 % of control (endpoint: mean survival time, dose: 100.0 mg/kg/injection, schedule: Q01DX005 (ip), vehicle: saline with Tween-80); 103 % of control (endpoint: mean survival time, dose: 200.0 mg/kg/injection, schedule: Q01DX005 (ip), vehicle: saline with Tween-80); 106 % of control (endpoint: mean survival time, dose: 400.0 mg/kg/injection, schedule: Q01DX005 (ip), vehicle: saline with Tween-80).

Take `Cc1ccc([PH+](c2ccc(C)cc2)c2ccc(C)cc2)cc1.Cc1ccc([PH+](c2ccc(C)cc2)c2ccc(C)cc2)cc1.[Cl][Hg][Cl]`: the T/C is 103 % of control (endpoint: mean survival time, dose: 50.0 mg/kg/injection, schedule: Q01DX009 (ip), vehicle: saline); 95 % of control (endpoint: mean survival time, dose: 100.0 mg/kg/injection, schedule: Q01DX009 (ip), vehicle: saline); 91 % of control (endpoint: mean survival time, dose: 200.0 mg/kg/injection, schedule: Q01DX009 (ip), vehicle: saline).

On to `CCCCCC(Br)C(Br)CC(Br)C(Br)CCCCCCCC(=O)O` (stereo unspecified), for which the T/C (endpoint: mean survival time, dose: 100.0 mg/kg/injection, schedule: Q01DX009 (ip), vehicle: acetone) is 95 % of control; the T/C (endpoint: mean survival time, dose: 200.0 mg/kg/injection, schedule: Q01DX009 (ip), vehicle: acetone) is 92 % of control; the T/C (endpoint: mean survival time, dose: 400.0 mg/kg/injection, schedule: Q01DX009 (ip), vehicle: acetone) was 90 % of control.

`OCCOc1ccc2ccccc2c1`: the T/C runs as follows: under setting [1], 100 % of control; (endpoint: mean survival time, dose: 100.0 mg/kg/injection, schedule: Q04DX003 (ip), vehicle: saline + alcohol) 97 % of control; under setting [2], 108 % of control; (endpoint: mean survival time, dose: 200.0 mg/kg/injection, schedule: Q04DX003 (ip), vehicle: saline + alcohol) 95 % of control; (endpoint: mean survival time, dose: 400.0 mg/kg/injection, schedule: Q01DX001 (ip), vehicle: saline with Tween-80) 103 % of control; (endpoint: mean survival time, dose: 400.0 mg/kg/injection, schedule: Q04DX003 (ip), vehicle: saline + alcohol) 91 % of control.

As to `O=C1N(C2CCCCC2)CC2C(c3cccnc3)NNC12O` (stereo unspecified), the T/C by setting is: under setting [1], 97 % of control; under setting [2], 87 % of control.

Turning to `O=C(c1ccccc1)c1cc(Cl)ccc1N1C(=O)C=CC1=O`, the T/C reads like this: (endpoint: mean survival time, dose: 6.25 mg/kg/injection, schedule: Q01DX009 (ip), vehicle: saline with Tween-80) 94 % of control; (endpoint: mean survival time, dose: 12.5 mg/kg/injection, schedule: Q01DX009 (ip), vehicle: saline with Tween-80) 95 % of control; (endpoint: mean survival time, dose: 25.0 mg/kg/injection, schedule: Q01DX009 (ip), vehicle: saline with Tween-80) 100 % of control.
